SMILES strings stand for the structures.

The source of these data is patent US8278359B2, “Compositions containing amines and use thereof to treat acne or reduce the appearance of oil or pores on the skin” (Johnson & Johnson Consumer Companies, Inc., priority 2005, dated 2012).

Common to all, as to type: cell-based
In one experiment the test system is Human keratinocytes. As to the kind of experiment: Electric Cell-substrate Impedance Sensing (ECIS) capacitance, keratinocyte contraction. To be noted: capacitance integrated over 5 hrs, 40,000 Hz, pH 7.2-7.3. An excerpt: Electrical changes due to the presence of a cell layer can be used to calculate cell morphological parameters including the barrier function of the cell layer (the spacing between the ventral side of the cell and the substratum) and the cell membrane capacitance (Giaever and Keese, Proceedings of National Academy of Sciences 88, 7896, 1991).
Current flowing between a reference electrode, onto which cells or cell cultures may be attached, and a larger counter electrode using normal culture medium as the electrolyte can be used to detect changes in cell morphological parameters. In the absence of cells on the electrode, the current flows unrestrained from the surface of the electrodes. In the presence of cells attached and spread upon the electrode, the current must now flow in the spaces under and between the cells, as the cell membrane act as insulators.
The electrical changes of living, viable cells can be sampled rapidly, in real time, over an extended period of time, and the measurements are the measurement is non-invasive. An example of this technology is the Electric Cell-substrate Impedance Sensing System (ECIS) available from Applied Biophysics (Troy, N.Y.). […]
Human keratinocytes and Epilife culture media (Cascade Biologics, Portland, Oreg.) were cultured at 37° C. in a humidified atmospheres of 5% CO2/95% air. […] Capacitance changes (in nanofarads, nF) of keratinocytes were measured using a Electric Cell-substrate Impedance Sensing System (ECIS) Model 1600R (Applied Biophysics, Troy, N.Y.) using the method of Wegener and co-workers (Wegener J, Keese C R, Giaever I, Exp Cell Res. 259:158-166, 2000) at a frequency of 40,000 Hz. Capacitance readings are inversely related to the contact area of a cell onto the ECIS electrode array, the greater the cell area contacting the electrode the smaller the capacitance readings (Wegener J, Keese C R, Giaever I, Exp Cell Res. 259:158-166, 2000). Conversely as a cell contracts or shrinks, the contact area of the cell onto the ECIS electrode array decreases, resulting in an increase in the capacitance readings. […]

The test system of experiment [1] is TNF (tissue necrosis factor-alpha). The experiment can be described thus: PHA-stimulated peripheral blood lymphocyte cytokine release: TNF. To be noted: Homo sapiens, 48 h, read-out: TNF % inh. From the text: The ability of various amines to affect the inflammatory responses was illustrated by its ability to reduce the production of cytokines by human lymphocytes stimulated with the T-cell receptor (TCR) activating agent phytohaemagglutinin (PHA) in the following assay.
Human leukocytes were collected from a healthy adult […] via leukopheresis, and adjusted to a density Of 1×10^6 cells/mL in serum free lymphocyte growth medium (ExVivo-15, Biowhittaker, Walkersville, Md.). PBLs were stimulated with 10 μg/mL PHA in the presence or absence of test samples following published methods (Hamamoto Y., et al. Exp Dermatol 2:231-235, 1993). The following compounds were evaluated N,N,N′,N′-Tetrakis(2-hydroxypropyl)ethylenediamine (THPED, available from BASF under the tradename “Quadrol” or “Neutrol”), N,N,N,N-Tetramethylethylenediamine (TEMED, available from Pfaltz & Bauer Chemicals (Waterbury, Conn.)), and Diethylenetriamine (available from Sigma-Aldrich) Following a 48 hour incubation at 37° C. with 5% CO2, the supernatant was removed and evaluated for cytokine content using commercially available multiplex cytokine detection kit.

The test system of experiment [2] is human facial skin biopsy punches rich in sebaceous glands. The experiment can be described thus: Sebum lipid accumulation in facial skin biopsy punches (C14-acetate, HPTLC). To be noted: 25 um; two experiments, two donors. From the text:
The ability of THPED to selectively affect the content of squalene present in human sebum without affecting other components of sebum was illustrated by its ability to selectively reduce the content of squalene present in human skin using the following assay.
The Methods used are as described previously by Pappas et al. (J Invest Dermatol. 2002 January; 118(1):164-171). In summary, samples of facial skin (otherwise to be discarded) were obtained from female patients 45-65 years of age. The subjects were healthy females without a history of retinoid or laser treatment or chemotherapy. The specimens were obtained from facial lift surgery within 5 hours from the end of the surgery. Two mm biopsy punches were taken from tissues rich in sebaceous glands and cultured in serum free medium. […]
The lipid components extracted from the explanted glands were analyzed by chromatographic separation on 10×20 cm Whatman HPTLC Silica G plates that had been previously charged with chloroform, heated in a vacuum oven at 105° C. for 30 min and cooled to room temperature in a dessicator. […]

As for `CC(O)CN(CCN(CC(C)O)CC(C)O)CC(C)O` (stereo not shown) [THPED, N,N,N′,N′-Tetrakis(2-hydroxypropyl)ethylenediamine], the “Electrical Capacitance Contraction of Human Keratinocytes (AUC, Mean ± Std Dev)” value in the experiment with Human keratinocytes (0.01% V/V) came out at 29.2 ± 3.2; in the experiment with Human keratinocytes (0.05% V/V), 35.1 ± 5.3; with Human keratinocytes (0.1% V/V) it was 44.5 ± 9.1. In addition, in experiment [1], the inhibition at 10 µg/mL was found to be 13.3%. For the same compound, in experiment [1], the inhibition at 100 µg/mL was 46.1%. For the same compound, in experiment [2], the “Inhibition of Squalene accumulation, (Percent of Vehicle Treated)” value is 44.0%. Moreover, the “Inhibition of Triglyceride accumulation, (Percent of Vehicle Treated)” value in experiment [2] turned out to be 2.65%.
